# Where a name gives a salt, the structure may show the parent alone. Read-outs that look alike come from different tables or passages of the source.
# Experiments:
# NK1 receptor = biological target: T1, NK1 receptor (Cavia porcellus, UniProt P30547); test: Antagonism of iodinated tachykinin binding to NK1 receptors (Example A); parameters: species or system guinea pig
# T1 construct: evaluated in guinea pig lungs (Keystone Biologicals, Cleveland, OH); tissue Keystone Biologicals, Cleveland, OH; host or cells: guinea pig lung membranes
# Procedure: (§1) One skilled in the art can determine the NK1 receptor and NK2 receptor affinity in vitro as follows. The NK1 receptor affinity of tachykinin antagonists is evaluated in guinea pig lungs (Keystone Biologicals, Cleveland, OH) and affinity for the NK2 receptor is evaluated in HSKR-1 cells (which are mouse 3T3 fibroblasts expressing the human jejunal NK2 receptor). Tissues or cells are homogenized with a Polytron in 15 volumes of 50 mM Tris-HC1 buffer (pH 7.4, 4°C) and centrifuged. The pellet is resuspended in Tris-HCl buffer and is centrifuged; the pellet is washed twice by resuspension. The final pellet is resuspended at a concentration of 40 mg/ml for tissues and 20 mg/ml for cells in incubation buffer and remains at room temperature for at least 15 min prior to use. Receptor binding is initiated by addition of 250 ul membrane preparation in duplicate to 0.1 nM of the following radioligands: ^125I-Bolton Hunter Lys-3 labeled substance P and ^125iodohistidyl-1-neurokinin A; in a final volume of 500 ul of buffer containing 50 mM Tris-HCl (pH 7.4 at room temperature), 0.1% bovine serum albumin, 2 mM mangenese chloride, 40 ug/ml bacitracin, 4 µg/ml leupeptin and chymostatin, 10 µM thiorphan and various doses of the putative tachykinin antagonists. Incubations are performed at room temperature for 90 min (NK1 receptor assays) or 2 hr (NK2 receptor assay); binding is terminated by addition of 50 mM Tris-HCl buffer (pH 7.4, 4°C) and filtration under vacuum through GF/B filters presoaked with 0.1% polyethyleneimine (NK1 receptor assays) or 0.5% bovine serum albumin (NK2 receptor assay). Filter bound radioactivity is quantitated in a gamma counter. Nonspecific binding is defined as binding in the presence of 1 µM substance P or neurokinin A. Specific binding is calculated by subtracting nonspecific binding from total binding. Competition of iodinated SP or NKA binding by test compounds or standards is expressed as a percentage of this maximum binding. IC50 values (concentration required to inhibit 50% of receptor binding) are generated for each of the test compounds by nonlinear regression using an iterative curve fitting program (GraphPAD Inplot, San Diego, CA).
# (§2) Tackykinin receptor binding (IC50 values) for representative compounds of the present invention is found in Table 1. The values in Table 1 were determined by the method of present Example A and represent the mean of several experiments, except where noted. […]
# [1] = biological target: T2, human jejunal NK2 receptor (Homo sapiens, UniProt P21452); test: Antagonism of iodinated tachykinin binding to NK2 receptors (Example A)
# T2 construct: expressed in transfected cells; host or cells: HSKR-1 cells (mouse 3T3 fibroblasts)
# T2 sequence (P21452 1-398): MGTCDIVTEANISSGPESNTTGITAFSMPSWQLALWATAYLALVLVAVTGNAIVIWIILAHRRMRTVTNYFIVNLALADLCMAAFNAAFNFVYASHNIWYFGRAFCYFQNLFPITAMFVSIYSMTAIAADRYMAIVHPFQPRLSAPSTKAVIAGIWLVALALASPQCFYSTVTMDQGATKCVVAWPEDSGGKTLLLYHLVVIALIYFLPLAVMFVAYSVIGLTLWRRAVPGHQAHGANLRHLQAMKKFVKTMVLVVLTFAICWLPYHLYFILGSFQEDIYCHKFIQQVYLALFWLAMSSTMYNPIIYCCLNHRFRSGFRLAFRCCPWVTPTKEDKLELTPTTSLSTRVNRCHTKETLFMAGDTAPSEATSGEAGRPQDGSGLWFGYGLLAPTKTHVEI
# Procedure: as §1, §2
# [2] = read-out: Tachykinin Receptor Binding NK1 IC50, guinea pig lungs membranes, 0.1 nM 125I-Bolton Hunter Lys-3 labeled substance P, 90 min room temperature, mean of several experiments
# [3] = read-out: Tachykinin Receptor Binding NK2 IC50, HSKR-1 cells (mouse 3T3 fibroblasts expressing the human jejunal NK2 receptor), 0.1 nM 125iodohistidyl-1-neurokinin A, 2 hr room temperature, mean of several experiments
# T1 sequence (P30547 whole entry): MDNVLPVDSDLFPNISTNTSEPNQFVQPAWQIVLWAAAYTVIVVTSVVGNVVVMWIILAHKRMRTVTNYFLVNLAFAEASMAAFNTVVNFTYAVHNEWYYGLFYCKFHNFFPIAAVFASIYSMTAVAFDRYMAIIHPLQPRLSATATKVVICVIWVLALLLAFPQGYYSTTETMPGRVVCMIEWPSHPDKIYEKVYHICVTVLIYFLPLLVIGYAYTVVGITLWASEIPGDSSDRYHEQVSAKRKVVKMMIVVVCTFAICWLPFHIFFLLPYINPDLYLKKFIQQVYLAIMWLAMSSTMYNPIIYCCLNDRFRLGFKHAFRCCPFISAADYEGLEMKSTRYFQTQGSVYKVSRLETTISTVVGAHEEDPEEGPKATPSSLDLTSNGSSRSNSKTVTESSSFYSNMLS
Compound,IC50 (NK1 receptor),IC50 [1],IC50 (NK1 receptor; [2]),"IC50 [1, 3]"
"COc1cc(C(=O)N2CC[C@](CCN3CCC(C(=O)N4CCN(CC(=O)O)CC4)(c4cccnc4)CC3)(c3ccc(Cl)c(Cl)c3)C2)cc(OC)c1OC [Example 6.1, (R)-1-(3,4,5-trimethoxybenzoyl)-3-(2-(4-(pyrid-3-yl)-4-((4-carboxymethylpiperazin-1-yl)carboxamido)piperidin-1-yl)ethyl)-3-(3,4-dichlorophenyl)pyrrolidine hydrochloric acid salt]",16.1 nM,14.7 nM,–,–
"COc1cc(C(=O)N2CC[C@](CCN3CCC(C(=O)N4CCN(CC(=O)OCc5oc(=O)oc5C)CC4)(c4ccccc4)CC3)(c3ccc(Cl)c(Cl)c3)C2)cc(OC)c1OC [Example 38.2, (R)-1-(3,4,5-Trimethoxybenzoyl)-3-(2-(4-phenyl-4-((4-carbo(5-methyl-2-oxo-1,3-dioxol-4-yimethoxy)methylpiperazin-1-yl)carboxamido)piperidin-1-yl)ethyl)-3-(3,4-dichlorophenyl)pyrrolidine fumaric acid salt]",–,–,7.82 nM,4.3 nM
"COc1ccc(-n2cnnn2)cc1C(=O)N1CC[C@](CCN2CCC(C(=O)N3CCN(CC(=O)O)CC3)(c3ccccc3)CC2)(c2ccc(Cl)c(Cl)c2)C1 [Example 11.1, (R)-1-(2-methoxy-5-(1H-tetrazol-1-yl)benzoyl)-3-(2-(4-phenyl-4-((4-carboxymethylpiperazin-1-yl)carboxamido)piperidin-1-yl)ethyl)-3-(3,4-dichlorophenyl)pyrrolidine hydrochloric acid salt]",10.5 nM,70.7 nM,–,–
"COc1cc(C(=O)N2CC[C@](CCN3CCC(C(=O)N4CCC[C@H]4C(=O)O)(c4ccccc4)CC3)(c3ccc(Cl)c(Cl)c3)C2)cc(OC)c1OC [Example 15.2, (R)-1-(3,4,5-trimethoxybenzonyl)-3-(2-(4-phenyl-4-(((S)-2-carboxypyrrolidin-1-yl)carboxamido)piperidin-1-yl)ethyl)-3-(3,4-dichlorophenyl)pyrrolidine hydrochloric acid salt]",14 nM,17.4 nM,–,–
"CCOC(=O)CCCN1CCN(C(=O)C2(c3ccccc3)CCN(CC[C@]3(c4ccc(Cl)c(Cl)c4)CCN(C(=O)c4cc(OC)c(OC)c(OC)c4)C3)CC2)CC1 [Example 29.2, (R)-1-(3,4,5-trimethoxybenzoyl)-3-(2-(4-phenyl-4-((4-carboethoxypropylpiperazin-1-yl)carboxamido)piperidine)ethyl)-3-(3,4-dichlorophenyl)pyrrolidine fumaric acid salt]",11.9 nM,3.21 nM,–,–
"CCN(CC)C(=O)COC(=O)CN1CCN(C(=O)C2(c3ccccc3)CCN(CC[C@]3(c4ccc(Cl)c(Cl)c4)CCN(C(=O)c4cc(OC)c(OC)c(OC)c4)C3)CC2)CC1 [Example 33.2, (R)-1-(3,4,5-trimethoxybenzoyl)-3-(2-(4-phenyl-4-((4-carbo(N,N-diethylcarboxamidomethoxy)methylpiperazin-1-yl)carboxamido)piperidine)ethyl)-3-(3,4-dichlorophenyl)pyrrolidine fumaric acid salt]",–,–,3.95 nM,2.43 nM
"COc1cc(C(=O)N2CC[C@@](CCN3CCC(C(=O)N4CCN(CC(=O)O)CC4)(c4ccccc4)CC3)(c3ccc(Cl)c(Cl)c3)C2)cc(OC)c1OC [Example 13.3, (S)-1-(3,4,5-trimethoxybenzoyl)-3-(2-(4-phenyl-4-((4-carboxymethylpiperazin-l-yl)carboxamido)piperidine)ethyl)-3-(3,4-dichlorophenyl)pyrrolidine hydrochloric acid salt]",5.63 nM,3.13 nM,–,–
"COc1cc(C(=O)N2CC[C@](CCN3CCC(C(=O)N4CCN(CC(=O)OCOC(=O)C(C)(C)C)CC4)(c4ccccc4)CC3)(c3ccc(Cl)c(Cl)c3)C2)cc(OC)c1OC [Example 32.2, (R)-1-(3,4,5-trimethoxybenzoyl)-3-(2-(4-phenyl-4-((4-carbo(t-butylcarbonyloxymethoxy)methylpiperazin-1-yl)carboxamido)piperidine)ethyl)-3-(3,4-dichlorophenyl)pyrrolidine fumaric acid salt]",–,–,21.2 nM,13.9 nM
"COC(=O)C1CCCN1C(=O)C1(c2ccccc2)CCN(CCC2(c3ccc(Cl)c(Cl)c3)CCN(C(=O)c3cc(OC)c(OC)c(OC)c3)C2)CC1 [Example 14.1, (R)-1-(3,4,5-Trimethoxybenzoyl)-3-(2-(4-phenyl-4-(((S)-2-carbomethoxypyrrolidin-1-yl)carboxamido)piperidin-1-yl)ethyl)-3-(3,4-dichlorophenyl)pyrrolidine]",4.32 nM,4.51 nM,–,–
"CCOC(=O)C1CCN(C(=O)C2(c3ccccc3)CCN(CC[C@]3(c4ccc(Cl)c(Cl)c4)CCN(C(=O)c4cc(OC)c(OC)c(OC)c4)C3)CC2)CC1 [Example 21.1, (R)-1-(3,4,5-Trimethoxybenzoyl)-3-(2-(4-phenyl-4-((4-carboethoxypiperidin-1-yl)carboxamido)piperidin-1-yl)ethyl)-3-(3,4-dichlorophenyl)pyrrolidine]",10.4 nM,2.28 nM,–,–
"COc1cc(C(=O)N2CC[C@](CCN3CCC(C(=O)N4CCN(CCC(=O)O)CC4)(c4ccccc4)CC3)(c3ccc(Cl)c(Cl)c3)C2)cc(OC)c1OC [Example 28.2, (R)-1-(3,4,5-trimethoxybenzoyl)-3-(2-(4-phenyl-4-((4-carboxyethylpiperazin-1-yl)carboxamido)piperidine)ethyl)-3-(3,4-dichlorophenyl)pyrrolidine hydrochloric acid salt]",19.6 nM,3.73 nM,–,–
"COc1cc(C(=O)N2CC[C@](CCN3CCC(C(=O)N4CCOC(C(=O)O)C4)(c4ccccc4)CC3)(c3ccc(Cl)c(Cl)c3)C2)cc(OC)c1OC (stereo partly drawn) [Example 26.1, (R)-1-(3,4,5-Trimethoxybenzoyl)-3-(2-(4-phenyl-4-((2-carboxymorpholin-4-yl)carboxamido)piperidin-1-yl)ethyl)-3-(3,4-dichlorophenyl)pyrrolidine]",9.9 nM,5.7 nM,–,–
"CCOC(=O)CN1CCN(C(=O)C2(c3ccccc3)CCN(CC[C@]3(c4ccc(Cl)c(Cl)c4)CCN(C(=O)c4cc(OC)c(OC)c(OC)c4)C3)CC2)CC1 [Example 8.3.1, (R)-1-(3,4,5-trimethoxvbenzoyl)-3-(2-(4-phenyl-4-((4-carboethoxymethylpiperazin-1-yl)carboxamido)piperidine)ethyl)-3-(3,4-dichlorophenyl)pyrrolidine hydrochloric acid salt]",7.7 nM,2.41 nM,–,–
"COc1cc(C(=O)N2CC[C@](CCN3CCC(C(=O)N4CCN(CC(=O)OCC(=O)N(C)CCN(C)C)CC4)(c4ccccc4)CC3)(c3ccc(Cl)c(Cl)c3)C2)cc(OC)c1OC [Example 37.2, (R)-1-(3,4,5-Trimethoxybenzoyl)-3-(2-(4-phenyl-4-((4-carbo(N-methyl-N-(2-dimethylaminoethyl))carboxamidomethoxy)methylpiperazin-1-yl)carboxamido)piperidin-1-yl)ethyl)-3-(3,4-dichlorophenyl)pyrrolidine fumaric acid salt]",–,–,2.09 nM,0.9 nM
"COc1cc(C(=O)N2CC[C@](CCN3CCC(C(=O)N4CCN(CC(=O)O)CC4)(c4ccccc4)CC3)(c3ccc(Cl)c(Cl)c3)C2)cc(OC)c1OC [Example 9.2, (R)-1-(3,4,5-trimethoxybenzoyl)-3-(2-(4-phenyl-4-((4-carboxymethylpiperazin-1-yl)carboxamido)piperidine)ethyl)-3-(3,4-dichlororophenyl)pyrrolidine hydrochloric acid salt]",5.63 nM,3.13 nM,–,–

# — EP0946545B1, “NOVEL CARBOXY SUBSTITUTED CYCLIC CARBOXAMIDE DERIVATIVES” (Aventis Pharmaceuticals Inc., priority 1996, dated 1998)
